# Reference: patent publication US9029545B2, “Thienopyridine NOX2 inhibitors” (GlaxoSmithKline Intellectual Property Limited, priority 2009, dated 2015)
# Structures can show the parent of a compound that is named as a salt.
# Biological target: T1, NOX2 in differentiated HL60 cells (Homo sapiens, UniProt P04839)
# T1 construct: Differentiation of HL-60 cells to granulocytes increases NOX2 expression; endogenous in cells; host or cells: HL60 cells differentiated to neutrophil-like cells with 1.3% DMSO and stimulated with PMA
# T1 sequence (P04839 1-570): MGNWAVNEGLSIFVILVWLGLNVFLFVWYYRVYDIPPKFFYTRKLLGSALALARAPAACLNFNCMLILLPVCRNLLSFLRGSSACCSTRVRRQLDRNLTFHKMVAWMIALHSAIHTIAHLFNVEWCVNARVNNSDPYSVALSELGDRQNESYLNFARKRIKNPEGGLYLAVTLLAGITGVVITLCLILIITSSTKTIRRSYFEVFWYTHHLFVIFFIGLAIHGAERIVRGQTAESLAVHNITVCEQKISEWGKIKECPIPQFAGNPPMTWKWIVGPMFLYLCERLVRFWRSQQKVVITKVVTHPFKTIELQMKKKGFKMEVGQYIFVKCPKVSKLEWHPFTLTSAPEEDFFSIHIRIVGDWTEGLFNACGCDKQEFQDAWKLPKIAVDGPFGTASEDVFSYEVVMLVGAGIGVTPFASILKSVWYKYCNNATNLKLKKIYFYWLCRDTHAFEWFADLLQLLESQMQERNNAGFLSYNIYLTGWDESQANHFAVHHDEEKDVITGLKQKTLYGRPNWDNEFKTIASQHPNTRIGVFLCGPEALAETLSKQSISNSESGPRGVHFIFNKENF
# T1 sequence (P13498 1-195 partner): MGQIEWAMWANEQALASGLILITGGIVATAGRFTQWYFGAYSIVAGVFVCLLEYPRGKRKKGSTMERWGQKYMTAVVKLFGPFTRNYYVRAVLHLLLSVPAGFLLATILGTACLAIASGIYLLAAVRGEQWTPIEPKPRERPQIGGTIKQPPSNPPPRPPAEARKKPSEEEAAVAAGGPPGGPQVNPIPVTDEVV
# Assay: HL60 cell-based assays (Assay 1 Oxyburst green BSA fluorescence, Assay 2 L-012 luminescence); result stated for at least one of them
# Conditions: PMA-stimulated superoxide production in differentiated HL60 cells; at least one of Oxyburst and L012 assays; read-out: pIC50 in at least one of the HL60 assays (converted)
# Procedure: In the cell-based assay, superoxide production by NOX2 was measured in differentiated HL60 cells, a human myelomonocytic leukemia cell line, using either Oxyburst (Assay1) or L012 (Assay2). Differentiation of HL-60 cells to granulocytes increases NOX2 expression. The phorbol 12-myristate 13-acetate (PMA) was used to stimulate the production of superoxide in HL60 cells by activating protein kinase C, which then activated the NADPH oxidase (NOX) enzymes. Inhibition of NOX2 enzyme was detected by the reversal of fluorescence signal (Assay1) or luminescence signal (Assay2). The control inhibitor used was diphenyleneiodonium chloride (DPI), a […] inhibitor capable of non-selectively inhibiting superoxide produced by NOX enzymes.
# Assay 1: in this high-throughput screening assay, oxyburst green bovine serum albumin (BSA) was used to detect superoxide production in HL60 cells. Oxidation of Oxyburst green BSA by hydrogen peroxide as a result of the activation of NOX2 by PMA. Oxyburst green BSA fluorescence was measured at excitation 485 nm and emission 530 nm.
# Assay 2: in this assay, a chemiluminescence probe, L-012 was used to detect superoxide production in HL60 cells. L-012 reacted with various types of reactive oxygen species generated by PMA-activated HL60 cells. Luminescence was measured using Tecan Infinite 500.
# The HL60 cells were differentiated into neutrophil-like cells by adding 1.3% DMSO in the media for 3-7 days (Hua, J et al. (2000) Journal of Leukocyte Biology. 68:216-224). Iscove's Modified Dulbecco's Media (IMDM) with L-Glutamine and 25 mM HEPES buffer, Fetal Bovine Serum (FBS), Penicillin/Streptomycin, Oxyburst Green BSA, PBS, and HBSS buffer with Calcium Chloride and Magnesium Chloride were purchased from Invitrogen (Catalog #s: 12440-061, 10500-064, 15140-163, O-13291, 14190-250, and 14025-134 respectively). Phorbol 12-myristate 13-acetate (PMA), glucose, and CHAPS were purchased from Sigma (Catalog #s: 79346, D-9434, and C5070 respectively). Diphenyleneiodonium chloride (DPI) was purchased from Toronto Research Chemicals (Catalog #: D491500). L-012 was purchased from Wako Chemical (Catalog #: 120-04891). Dimethyl sulfoxide (DMSO) was purchased EMD Chemicals (VWR Catalog #: MX1456-1). Multidrop combi was purchased from Thermo Electron Corporation (Waltham, Mass., USA). Hummingbird nanoliter liquid dispenser was purchased from Genomics Solution (Ann Arbor, Mich., USA). 384 well low-volume plates and polypropylene 384 well clear plates were purchased from Greiner (Catalog #: 784076 and 781280 respectively). 96 well plate and 384 well plate black assay plates were purchased from Greiner (Catalog #: 655094 and 781098). 96 well plate for compound serial dilution was purchased from Corning (Catalog #: 9017). Acquest or Analyst fluorescence plate reader was purchased from LJL Biosystems/Molecular Devices (California, USA). Tecan Infinite 500 was purchased from Tecan (Switzerland).
# Media for HL60 cells were kept at 4° C. for storage and were warmed to 37° C. in a water bath before use. The media components were IMDM media with 20% FBS and 1% Penicillin/Streptomycin.
# Buffer to be used for compound addition and compound dilution consisted of HBSS buffer with 0.1% glucose.
# Buffer to be used for cells consisted of HBSS buffer with 0.1% glucose and 0.01% CHAPS.
# HL60 cells were thawed and resuspended in Cells media. The cells were centrifuged at 1200 rpm for 8 minutes. Media was aspirated and the cells were resuspended in Cells buffer. The cells were counted and resuspended to 1×10^6 cells/mL.
# Full inhibition controls were dispensed using 100 nL/well of 1 mM DPI in DMSO to column 18 of a 384 well plate. Compounds were dispensed using 100 nL/well. Full activity controls were dispensed using 100 nL/well of 4 uM PMA in DMSO. Oxyburst Green BSA was added to cell solution at 10 ug/mL. Using the Multidrop, 10 uL cell solution was added to the entire assay plate. The assay plate was incubated at room temperature for 100 minutes. […]
row,IC50,Structure (SMILES)
1,< 100 µM,"COc1cccc(-c2c(C(C)C)sc3nc(C)cc(NS(=O)(=O)c4cccc(Cl)c4)c23)c1 [Example 45, 3-Chloro-N-{6-methyl-2-(1-methylethyl)-3-[3-(methyloxy)phenyl]thieno[2,3-b]pyridin-4-yl}-benzenesulfonamide trifluoroacetate]"
2,< 100 µM,"COc1cccc(-c2c(C)sc3nc(Cl)cc(NS(=O)(=O)c4cccc(Cl)c4)c23)c1 [Example 117, 3-Chloro-N-{6-chloro-2-methyl-3-[3-(methyloxy)phenyl]thieno[2,3-b]pyridin-4-yl}benzenesulfonamide]"
3,< 100 µM,"COc1ccc(-c2c(C)sc3nc(C)cc(NS(=O)(=O)c4cccc(Cl)c4)c23)cc1 [Example 18, 3-Chloro-N-{2,6-dimethyl-3-[4-(methyloxy)phenyl]thieno[2,3-b]pyridin-4-yl}-benzenesulfonamide]"
4,< 100 µM,"COc1ccc(-c2csc3nc(C)cc(NS(=O)(=O)c4cccc(Cl)c4)c23)cc1OC [Example 47, N-{3-[3,4-Bis(methyloxy)phenyl]-6-methylthieno[2,3-b]pyridin-4-yl}-3-chlorobenzenesulfonamide trifluoroacetate]"
5,< 100 µM,"Cc1cc(NS(=O)(=O)c2cccc(Cl)c2)c2c(-c3ccc(Cl)c(Cl)c3)c(C)sc2n1 [Example 20, 3-Chloro-N-[3-(3,4-dichlorophenyl)-2,6-dimethylthieno[2,3-b]pyridin-4-yl]benzenesulfonamide]"
6,< 100 µM,"Cc1cc(NS(=O)(=O)c2cccc(Cl)c2)c2c(-c3cccc(CNC(=O)OC(C)(C)C)c3)c(C)sc2n1 [Example 70, 1,1-Dimethylethyl {[3-(4-{[(3-chlorophenyl)sulfonyl]amino}-2,6-dimethylthieno[2,3-b]pyridin-3-yl)phenyl]methyl}carbamate]"
7,< 100 µM,"Cc1cc(NS(=O)(=O)c2cccc(Cl)c2)c2c(-c3cn[nH]c3)c(C)sc2n1 [Example 63, 3-Chloro-N-[2,6-dimethyl-3-(1H-pyrazol-4-yl)thieno[2,3-b]pyridin-4-yl]benzenesulfonamide]"
8,< 100 µM,"COc1cccc(-c2c(C)sc3nc(C)cc(NS(=O)(=O)c4cccc(Cl)c4)c23)c1 [Example 1, 3-Chloro-N-{2,6-dimethyl-3-[3-(methyloxy)phenyl]thieno[2,3-b]pyridin-4-yl}-benzenesulfonamide]"
9,< 100 µM,"COc1cccc(-c2c(-c3cccnc3)sc3nc(C)cc(NS(=O)(=O)c4cccc(Cl)c4)c23)c1 [Example 41, 3-Chloro-N-[6-methyl-3-[3-(methyloxy)phenyl]-2-(3-pyridinyl)thieno[2,3-b]pyridin-4-yl]-benzenesulfonamide]"
10,< 100 µM,"COC(=O)c1sc2nc(C)cc(NS(=O)(=O)c3cccc(Cl)c3)c2c1-c1cccc(OC)c1 [Example 36, Methyl 4-{[(3-chlorophenyl)sulfonyl]amino}-6-methyl-3-[3-(methyloxy)phenyl]thieno[2,3-b]pyridine-2-carboxylate]"
11,< 100 µM,"COc1cccc(-c2c(C)sc3nc(C)cc(NS(=O)(=O)c4cncc(Br)c4)c23)c1 [Example 52, 5-Bromo-N-{2,6-dimethyl-3-[3-(methyloxy)phenyl]thieno[2,3-b]pyridin-4-yl}-3-pyridinesulfonamide trifluoroacetate]"
12,< 100 µM,"COc1cccc(-c2c(-c3ccoc3)sc3nc(C)cc(NS(=O)(=O)c4cccc(Cl)c4)c23)c1 [Example 57, 3-Chloro-N-{2-(3-furanyl)-6-methyl-3-[3-(methyloxy)phenyl]thieno[2,3-b]pyridin-4-yl}-benzenesulfonamide]"
13,< 100 µM,"COc1cccc(-c2c(-c3cccs3)sc3nc(C)cc(NS(=O)(=O)c4cccc(Cl)c4)c23)c1 [Example 44, 3-Chloro-N-[6-methyl-3-[3-(methyloxy)phenyl]-2-(2-thienyl)thieno[2,3-b]pyridin-4-yl]-benzenesulfonamide]"
14,< 100 µM,"COc1cccc(-c2c(C)sc3nc(C)cc(NS(=O)(=O)C4(Cl)CCN(C(=O)OCc5ccccc5)CC4)c23)c1 [Example 10, Phenylmethyl 4-chloro-4-[({2,6-dimethyl-3-[3-(methyloxy)phenyl]thieno[2,3-b]pyridin-4-yl}amino)sulfonyl]-1-piperidinecarboxylate]"
15,< 100 µM,"COc1cccc(-c2csc3nccc(NS(=O)(=O)c4cccc(Cl)c4)c23)c1 [Example 62, 3-Chloro-N-{3-[3-(methyloxy)phenyl]thieno[2,3-b]pyridin-4-yl}benzenesulfonamide]"
16,< 100 µM,"COc1cccc(-c2c(C)sc3nc(C)cc(NS(=O)(=O)C4CCCCC4)c23)c1 [Example 8, N-{2,6-Dimethyl-3-[3-(methyloxy)phenyl]thieno[2,3-b]pyridin-4-yl}-cyclohexanesulfonamide]"
17,< 100 µM,"Cc1cc(NS(=O)(=O)c2cccc(Cl)c2)c2c(Br)c(-c3cn[nH]c3)sc2n1 [Example 100, N-[3-Bromo-6-methyl-2-(1H-pyrazol-4-yl)thieno[2,3-b]pyridin-4-yl]-3-chlorobenzenesulfonamide]"
18,< 100 µM,"COc1cncc(-c2c(C)sc3nc(C)cc(NS(=O)(=O)c4cccc(Cl)c4)c23)c1 [Example 67, 3-Chloro-N-{2,6-dimethyl-3-[5-(methyloxy)-3-pyridinyl]thieno[2,3-b]pyridin-4-yl}benzenesulfonamide]"
19,< 100 µM,"CCc1sc2nc(C)cc(NS(=O)(=O)c3cccc(Cl)c3)c2c1-c1cccc(N(C)C)c1 [Example 48, 3-Chloro-N-{3-[3-(dimethylamino)phenyl]-2-ethyl-6-methylthieno[2,3-b]pyridin-4-yl}benzenesulfonamide trifluoroacetate]"
20,< 100 µM,"Cc1cc(NS(=O)(=O)c2cccc(Cl)c2)c2c(C)c(-c3cn[nH]c3)sc2n1 [Example 76, 3-Chloro-N-[3,6-dimethyl-2-(1H-pyrazol-4-yl)thieno[2,3-b]pyridin-4-yl]benzenesulfonamide]"
21,< 100 µM,"COc1cccc(-c2c(-c3ccco3)sc3nc(C)cc(NS(=O)(=O)c4cccc(Cl)c4)c23)c1 [Example 42, 3-Chloro-N-{2-(2-furanyl)-6-methyl-3-[3-(methyloxy)phenyl]thieno[2,3-b]pyridin-4-yl}-benzenesulfonamide]"
